Reference: patent publication US12122752B1, “5-(2,4,5-tris(4-chlorophenyl)-1H-imidazol-1-yl)pentanoic acid as an antimicrobial compound” (KING FAISAL UNIVERSITY, priority 2023, dated 2024)

Key:
Type in all cases: cell-based
[1] = system: Aspergillus flavus; assay: Agar plate disc-diffusion, antifungal activity by inhibition zone; conditions: Sabouraud's dextrose agar, 72 hours
Protocol: (§1) The agar plate disc-diffusion method was applied. Sterilized filter papers (6 mm in diameter) were wetted with 10 μL of a solution of 5-(2,4,5-tris(4-chlorophenyl)-1H-imidazol-1-yl)pentanoic acid (V) to be tested, containing 10 mg/mL in DMSO, and the discs were allowed to air dry. The discs were then placed onto the surface of agar plates (nutrient agar for bacteria and Sabouraud's dextrose agar for fungi) seeded with the test organism. Each plate contained 15 mL of the agar medium, previously seeded with 0.2 mL of the broth culture of each organism pregrown for 18 hours. The plates were incubated at 37° C. for 48 hours, and 72 hours for fungi. The inhibition zones was measured in mm. Discs impregnated with DMSO were used as a control, and its inhibition zone was subtracted from the tested compound actual inhibition zone.
(§2) Their antibacterial screened against gram positive bacteria namely Bacillus cereus and Staphylococcus aureus and gram-negative bacterial strains namely Pseudomonas aeruginosa and Escherichia coli, while their antifungal activity screened against Aspergillus flavus and Chrysosporium keratinophilum as shown in Table 1 and 2.

[2] = system: Chrysosporium keratinophilum; assay: as above; conditions: Sabouraud's dextrose agar, 72 hours
Protocol: as §1, §2

[3] = system: Pseudomonas aeruginosa; assay: Agar plate disc-diffusion, antibacterial activity by inhibition zone; conditions: gram negative, nutrient agar, 37° C., 48 hours
Protocol: as §1, with “Sterilized filter papers (6 mm in diameter) were wetted with 10 μL of a solution of 5-(2,4,5-tris(4-chlorophenyl)-1H-imidazol-1-yl)pentanoic acid (V) to be tested, containing 10 mg/mL in DMSO, and the discs were allowed to air dry.” left out
as §2

[4] = system: Escherichia coli; assay: as above; conditions: gram negative, nutrient agar, 37° C., 48 hours
Protocol: as §1, with “Sterilized filter papers (6 mm in diameter) were wetted with 10 μL of a solution of 5-(2,4,5-tris(4-chlorophenyl)-1H-imidazol-1-yl)pentanoic acid (V) to be tested, containing 10 mg/mL in DMSO, and the discs were allowed to air dry.” left out
as §2

[5] = system: Staphylococcus aureus; assay: as above; conditions: gram positive, nutrient agar, 37° C., 48 hours
Protocol: as §1, with “Sterilized filter papers (6 mm in diameter) were wetted with 10 μL of a solution of 5-(2,4,5-tris(4-chlorophenyl)-1H-imidazol-1-yl)pentanoic acid (V) to be tested, containing 10 mg/mL in DMSO, and the discs were allowed to air dry.” left out
as §2

[6] = system: Bacillus Cereus; assay: as above; conditions: gram positive, nutrient agar, 37° C., 48 hours
Protocol: as §1, with “Sterilized filter papers (6 mm in diameter) were wetted with 10 μL of a solution of 5-(2,4,5-tris(4-chlorophenyl)-1H-imidazol-1-yl)pentanoic acid (V) to be tested, containing 10 mg/mL in DMSO, and the discs were allowed to air dry.” left out
as §2

[7] = system: different microbes; assay: Antimicrobial testing, overall statement; conditions: summary in words of Tables 1 and 2
Protocol: as §1, §2

[8] = A = concentration of comp. = 10,000 μL
[9] = B = concentration of comp. = 30,000 μL
[10] = C = concentration of comp. = 50,000 μL

## O=C(O)c1cn(C2CC2)c2cc(N3CCNCC3)c(F)cc2c1=O [Cip., reference compound]
[1]; [8]
  inhibition zone: 29 mm
[1]; [9]
  inhibition zone: 32 mm
[1]; [10]
  inhibition zone: 42 mm
[2]; [8]
  inhibition zone: 29 mm
[2]; [9]
  inhibition zone: 30 mm
[2]; [10]
  inhibition zone: 53 mm
[3]; [8]
  inhibition zone: 29 mm
[3]; [9]
  inhibition zone: 30 mm
[3]; [10]
  inhibition zone: 53 mm
[4]; [8]
  inhibition zone: 30 mm
[4]; [9]
  inhibition zone: 39 mm
[4]; [10]
  inhibition zone: 60 mm
[5]; [8]
  inhibition zone: 42 mm
[5]; [9]
  inhibition zone: 44 mm
[5]; [10]
  inhibition zone: 53 mm
[6]; [8]
  inhibition zone: 29 mm
[6]; [9]
  inhibition zone: 31 mm
[6]; [10]
  inhibition zone: 42 mm

## O=C(O)CCCCn1c(-c2ccc(Cl)cc2)nc(-c2ccc(Cl)cc2)c1-c1ccc(Cl)cc1 [V, 5-(2,4,5-tris(4-chlorophenyl)-1H-imidazol-1-yl)pentanoic acid]
[1]; [8]
  inhibition zone: 17 mm
[1]; [9]
  inhibition zone: 22 mm
[1]; [10]
  inhibition zone: 31 mm
[2]; [8]
  inhibition zone: 25 mm
[2]; [9]
  inhibition zone: 28 mm
[2]; [10]
  inhibition zone: 46 mm
[3]; [8]
  inhibition zone: 25 mm
[3]; [9]
  inhibition zone: 30 mm
[3]; [10]
  inhibition zone: 43 mm
[4]; [8]
  inhibition zone: 27 mm
[4]; [9]
  inhibition zone: 35 mm
[4]; [10]
  inhibition zone: 50 mm
[5]; [8]
  inhibition zone: 18 mm
[5]; [9]
  inhibition zone: 22 mm
[5]; [10]
  inhibition zone: 33 mm
[6]; [8]
  inhibition zone: 23 mm
[6]; [9]
  inhibition zone: 25 mm
[6]; [10]
  inhibition zone: 37 mm
[7]
  antimicrobials activities against different microbes: excellent
